Patent publication US8278072B1, “Method for synthesis of sialylated products using reversible sialylation” (Health Research, Inc., priority 2007, dated 2012)
Marks after values point to notes of the source that are not given here.

Tests used:
Format in all cases: biochemical
ST3Gal-II [1] = target: T1, ST3Gal-II (Rattus norvegicus, UniProt Q11205); test: Exchange of radiolabeled sialyl residues in bovine brain gangliosides (TLC); details: bovine brain ganglioside mixture, CMP-[9-3H]NeuAc or CMP-[14C]NeuAc
T1 construct: purchased Calbiochem
T1 sequence (Q11205 1-350): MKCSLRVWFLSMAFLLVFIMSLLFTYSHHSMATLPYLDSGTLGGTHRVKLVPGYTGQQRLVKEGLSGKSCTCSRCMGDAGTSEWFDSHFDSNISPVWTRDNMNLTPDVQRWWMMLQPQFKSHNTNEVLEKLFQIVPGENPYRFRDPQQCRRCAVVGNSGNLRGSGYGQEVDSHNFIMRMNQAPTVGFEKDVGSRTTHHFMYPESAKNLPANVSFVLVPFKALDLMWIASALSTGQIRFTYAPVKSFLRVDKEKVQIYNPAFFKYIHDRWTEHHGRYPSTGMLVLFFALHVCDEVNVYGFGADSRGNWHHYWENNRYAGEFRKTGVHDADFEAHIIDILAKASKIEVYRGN
From the text: Rat recombinant ST3Gal-II (α2,3(0)ST) was purchased from Calbiochem. Three different lots of ST3Gal-II purchased from Calbiochem and used in this study yielded similar results. CMP-NeuAc was obtained from Sigma. All enzymatic sialylation reactions were typically carried out in NaCa Codylate buffer pH6.0 in presence of enzyme acceptor CMP-[9-^3H]NeuAc or (NEN-DuPont) CMP[^14C]NeuAc. The concentration of total CMP-NeuAc was adjusted in individual reactions by supplementing with non-radioactive CMP-NeuAc. Products formed were separated using different chromatograph procedures. • a) Gel chromatography on Biogel P2 and P6 columns: A Biogel P2 column or Biogel P6 column (Fine Mesh; 1.0×116.0 cm) was used with 0.1 M pyridine acetate (pH5.4) as the eluent at room temperature. […] The first peak of radioactivity emerging in this void volume was collected and lyophilized to dryness. […]
Both [9-^3H] and [^14C] sialic acid labeled bovine brain ganglioside mixtures were subjected to TLC using CHcl3:CH3OH:0.2% aqueous CaCl2 (v/v 60:40:9) as the solvent system. The radioactivities were located on the TLC plates by scraping silica gel from 0.5 cm width segments of the TLC plates and then counting the radioactivity after soaking silica in 2.0 ml water by scintillation counting. […]

ST3Gal-III = target: T2, ST3Gal-III (Rattus norvegicus, UniProt Q02734); test: Donor specificity for reverse sialylation, ST3Gal-III; details: 0.05 mM donor, 0.8 mM 5′-CMP
T2 construct: purchased Calbiochem
T2 sequence (Q02734 1-374): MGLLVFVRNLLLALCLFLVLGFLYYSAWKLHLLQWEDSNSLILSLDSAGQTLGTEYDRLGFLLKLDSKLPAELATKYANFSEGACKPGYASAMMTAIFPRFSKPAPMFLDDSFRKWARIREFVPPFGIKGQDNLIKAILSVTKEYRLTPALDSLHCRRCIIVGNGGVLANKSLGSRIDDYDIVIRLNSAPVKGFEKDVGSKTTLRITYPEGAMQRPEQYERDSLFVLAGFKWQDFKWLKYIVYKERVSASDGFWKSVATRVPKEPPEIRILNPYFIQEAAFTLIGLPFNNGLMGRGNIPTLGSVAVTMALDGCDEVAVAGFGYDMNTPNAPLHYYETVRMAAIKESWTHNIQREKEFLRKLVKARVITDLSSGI
From the text: (§1) We determined if reverse sialylation was more pronounced for ST3Gal-II in comparison to other sialyltransferases. Thus two other cloned rat sialyltransferases ST3Gal-III (or α2,3(N)ST) and ST6Gal-I (or α2,6(N)ST) (14) were examined. For these studies, we generated two molecules: i) [9-^3H]NeuAcα2,6Galβ1,4GlcNAcβ-O—Al (Al-Allyl) was made by the reaction of Galβ1,4GlcNAcβ-O—Al and CMP-[9-^3H]NeuAc in the presence of α2,6sialyltransferase, ST6Gal-I. (The radioactive product was separated using Biogel P2 column using a protocol similar to that described above.); and ii) [9-^3H]NeuAcα2,3Galβ1,4 GlcNAcβ-O—Al was similarly produced by reacting Galβ1,4GlcNAcβ-O—Al and CMP-[9-^3H]NeuAc in the presence of α2,3sialyltransferase ST3Gal-III. […] However, it is efficiently sialylated by both ST3Gal-III and ST6Gal-I. The ability of these two radiolabeled molecules ([14] and [15]) to act as [9-^3H]NeuAc donors was assayed in studies (Table IV) where the compounds were mixed with excess 5′-CMP, enzyme and acceptors with benzyl aglycan group. C18 cartridges were then used to measure the extent of [9-^3H]NeuAc transferred to acceptor using reaction scheme-II. Because all acceptors used in this table are efficiently sialylated by enzymes listed in the adjacent columns, these experiments essentially measure the amount of CMP-NeuAc formed using particular donor-enzyme pairs.
(§2) Thus, reverse sialylation takes place with ST3Gal-II.

ST3Gal-II [2] = target: T1, ST3Gal-II; test: Donor specificity for reverse sialylation, ST3Gal-II; details: 0.05 mM donor, […] 5′-CMP, acceptor 5 mM D-Fuc(1,3GalNAc(-O-Bn, 3 mU ST3Gal-II)); zero = slightly below background
From the text: as §1, with “pairs. […]” for “pairs.”

ST6Gal-I = target: T3, ST6Gal-I (Rattus norvegicus, UniProt P13721); test: Donor specificity for reverse sialylation, ST6Gal-I; details: 0.05 mM donor, 0.8 mM 5′-CMP, 3 mU ST6Gal-I
T3 construct: purchased Calbiochem
T3 sequence (P13721 1-403): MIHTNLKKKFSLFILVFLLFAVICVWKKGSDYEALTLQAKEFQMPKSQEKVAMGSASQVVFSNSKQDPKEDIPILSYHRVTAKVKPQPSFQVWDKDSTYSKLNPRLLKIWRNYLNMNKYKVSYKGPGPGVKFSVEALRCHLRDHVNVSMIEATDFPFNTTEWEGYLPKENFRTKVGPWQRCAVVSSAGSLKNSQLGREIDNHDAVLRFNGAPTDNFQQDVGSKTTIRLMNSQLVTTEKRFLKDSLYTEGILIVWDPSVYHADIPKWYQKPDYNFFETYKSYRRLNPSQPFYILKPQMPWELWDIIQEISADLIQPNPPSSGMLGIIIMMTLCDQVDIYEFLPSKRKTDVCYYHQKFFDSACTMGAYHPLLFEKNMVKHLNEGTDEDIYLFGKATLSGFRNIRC
From the text: as §1, §2

GD1a
Exchange of sialyl residues with CMP-sialic acid by ST3Gal-II (ST3Gal-II [1]): exchangeable

GT1b
Exchange of sialyl residues with CMP-sialic acid by ST3Gal-II (ST3Gal-II [1]): exchangeable

[9-^3H]NeuAcα2,3Galβ1,4 GlcNAcβ-O—Al [[15]]
Radiolabeled acceptor/product formed (ST3Gal-III; acceptor 2.5 mM Gal(1,4GlcNAc(1,3Gal(1,4GlcNAc(-O-Bn, 3 mU ST3Gal-III))))): 24 CPM
Radiolabeled acceptor/product formed (ST3Gal-III; acceptor 2.5 mM Galβ1,4GlcNAcβ1,6(Galβ1,3)GalNAcα-O-Bn, 3 mU ST3Gal-III): 27 CPM
Radiolabeled acceptor/product formed (ST3Gal-III; acceptor 2.5 mM Galβ1,4GlcNAcβ-O-Bn, 3 mU ST3Gal-III): 5 CPM
Radiolabeled acceptor/product formed (ST3Gal-II [2]): <0* CPM

[9-^3H]NeuAcα2,6Galβ1,4GlcNAcβ-O—Al [[14]]
Radiolabeled acceptor/product formed (ST6Gal-I; acceptor 2.5 mM Galβ1,4GlcNAcβ1,3Galβ1,4GlcNAcβ-O-Bn): 45 CPM
Radiolabeled acceptor/product formed (ST6Gal-I; acceptor 2.5 mM Galβ1,4GlcNAcβ1,6(Galβ1,3)GalNAcα-O-Bn): 36 CPM
Radiolabeled acceptor/product formed (ST6Gal-I; acceptor 2.5 mM Galβ1,4GlcNAcβ-O-Bn): 129 CPM
Radiolabeled acceptor/product formed (ST3Gal-II [2]): <0* CPM
